Assay results reported in US11078188B2, “Dihydroquinoxaline bromodomain recognition protein inhibitor, preparation method and use thereof” (SHANGHAI INSTITUTE OF MATERIA MEDICA, CHINESE ACADEMY OF …, priority 2017, dated 2021).

Columns and labels:
[1] = Metabolic stability in mouse liver microsomes; type: in vitro ADME
[2] = Metabolic stability in human liver microsomes; type: in vitro ADME; details: human liver microsomes 0.5 mg/ml, 1 μM compound, NADPH
Experimental: The system which was 150 μl of human liver microsomes (final concentration: 0.5 mg/ml) was used for metabolic stability incubation. The system contained reduced coenzyme II (NADPH) (final concentration: 1 mM) and 1 μM compound, positive control or negative control. The reaction was terminated with acetonitrile containing (imiprozine, batch number: 3221; tinidazole, given) at 0 min, 5 min, 10 min, and 30 min, respectively. The mixture was vortexed for 10 min, centrifuged at 15000 rpm for 10 min, and 50 μl of the supernatant was injected into a 96-well plate. The metabolic stability of the compound was calculated by measuring the relative reduction in the original medicament.
HLM Clint (μl/min/mg) refers to the clearance rate of compounds in human liver microsomes having a unit of μl/min/mg; mLM Clint (μl/min/mg) refers to the clearance rate of compounds in mouse liver microsomes having a unit of μl/min/mg; HLM t1/2 (min) refers to the half-life of the compound in human liver microsomes having a unit of minutes; mLM t1/2 (min) refers to the half-life of the compound in mouse liver microsomes having a unit of minutes. TDI means that the mechanism inhibition test of compounds on CYP enzyme evaluates whether the compound has time-dependent inhibition of the enzyme.

[3] = tested on: human myeloma cells MM.1S; assay: MM.1S cell viability, CCK-8 method; type: cell-based; details: for IC50: 72 h treatment, CCK-8; for inhibitory activity against the MM.1S cell line (in words): compared with positive (+)-JQ1
Experimental: The MM.1S cell line was tested for cell viability. The test methods were as follows: human myeloma cells MM.1S were treated with compound for 72 h, and the proliferation inhibition effect and degree of the compound were detected by CCK-8 method.

[4] = tested on: MM.1S nude mice xenografts; assay: Growth of MM.1S nude mice xenografts in vivo; parameters: species or system Balb/C nude mice; details: for TV (mm^3, mean) d0: d0 (at start of administration)
Experimental: Balb/C nude mice (6 weeks, female, Beijing Huafukang Biotechnology Co., Ltd.) were purchased, and the animals were conditioned for about one week before the test. MM.1S cells were cultured in vitro, and the cells in logarithmic growth phase were resuspended in serum-free RPMI1640 medium to adjust the cell concentration. The cell suspension was subcutaneously injected into forefoot armpit of the Balb/C nude mice with a syringe, and each animal was injected with 150 μL (8.0×10^6/mouse). When the average tumor volume grew to about ˜150 mm^3, the animals were divided into 4 groups containing solvent control group, 50 mg/kg OTX-015 group, and 20 and 50 mg/kg compound 6 groups by the randomized block method and each group contained six animals. […] During the administration period, the tumor diameter was measured twice a week, the body weight of the animals was weighed, the living state of the animals was observed, and abnormal conditions were recorded.
The formula for calculating tumor volume (TV): TV=½×a×b^2, where a and b represent length and width, respectively.
The relative tumor volume (RTV) was calculated based on the measured results, and the calculation formula was: RTV=Vt/V0. Wherein V0 was the measured tumor volume at the time of administration by cage (ie, d0), and Vt was the tumor volume at each measurement.
The relative tumor proliferation rate T/C (%) was calculated based on the measured results, and the calculation formula was as follows: T/C (%)=(TRTV/CRTV)×100%, TRTV: treatment group RTV; CRTV: negative control group RTV.

[5] = target: CYP3A4 (Homo sapiens (Human), UniProt P08684); assay: Direct inhibition test (DI test), CYP 3A4; type: in vitro ADME; details: human liver microsomes 0.2 mg/ml, first of two values a/b (two 3A4 probes midazolam, testosterone; assignment not given), read-out: Direct inhibition rate (%) 3A4, first value
Experimental: (§1) The system which was 100 μl of human liver microsomes (final concentration: 0.2 mg/ml) was used for direct inhibition incubation. The system contained NADPH (final concentration: 1 mM), 10 μl compound, positive inhibitor cocktail (ketoconazole, 10 μl, quinidine 10 μl, sulfaphenazole 100 μl, naphthoflavone 10 μl, tranylcypromine 1000 μl), negative control 10 μl DMSO and mixed probe substrate (midazolam 10 μl, testosterone 100 μl, dextromethorphan 10 μl, diclofenac 20 μl, phenacetin 100 μl, mephenytoin 100 μl). The reaction was stopped after the system was incubated for 20 min. The relative activity of the enzyme was calculated by measuring the relative amount of production of the metabolite.

[6] = target: 2C9 (Homo sapiens (Human), UniProt P11712); assay: Direct inhibition test (DI test), CYP 2C9; type: in vitro ADME; details: human liver microsomes 0.2 mg/ml, 20 min
Experimental: as §1

[7] = target: 2C19 (Homo sapiens (Human), UniProt P33261); assay: Direct inhibition test (DI test), CYP 2C19; type: in vitro ADME; details: human liver microsomes 0.2 mg/ml, 20 min
Experimental: as §1

[8] = target: 1A2 (Homo sapiens (Human), UniProt P05177); assay: Direct inhibition test (DI test), CYP 1A2; type: in vitro ADME; details: human liver microsomes 0.2 mg/ml, 20 min
Experimental: as §1

[9] = target: CYP2D6 (Homo sapiens (Human), UniProt P10635); assay: Direct inhibition test (DI test), CYP 2D6; type: in vitro ADME; details: human liver microsomes 0.2 mg/ml, read-out: Direct inhibition rate (%) 2D6
Experimental: as §1

Sequence of 2C19 (P33261 whole entry): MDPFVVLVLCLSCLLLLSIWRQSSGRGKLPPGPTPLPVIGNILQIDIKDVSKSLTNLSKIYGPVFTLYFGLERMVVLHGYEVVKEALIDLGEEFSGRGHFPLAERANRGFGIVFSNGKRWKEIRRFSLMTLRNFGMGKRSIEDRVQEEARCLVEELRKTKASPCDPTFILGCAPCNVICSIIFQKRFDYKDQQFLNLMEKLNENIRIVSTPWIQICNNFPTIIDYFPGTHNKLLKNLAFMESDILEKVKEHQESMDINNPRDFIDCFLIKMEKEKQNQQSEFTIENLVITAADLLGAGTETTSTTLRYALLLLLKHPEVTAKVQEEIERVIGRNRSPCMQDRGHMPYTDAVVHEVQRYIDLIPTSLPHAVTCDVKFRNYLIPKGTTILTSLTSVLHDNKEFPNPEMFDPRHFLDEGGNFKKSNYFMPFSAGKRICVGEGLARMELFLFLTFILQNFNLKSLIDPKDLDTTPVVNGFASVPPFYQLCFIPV
Sequence of 1A2 (P05177 whole entry): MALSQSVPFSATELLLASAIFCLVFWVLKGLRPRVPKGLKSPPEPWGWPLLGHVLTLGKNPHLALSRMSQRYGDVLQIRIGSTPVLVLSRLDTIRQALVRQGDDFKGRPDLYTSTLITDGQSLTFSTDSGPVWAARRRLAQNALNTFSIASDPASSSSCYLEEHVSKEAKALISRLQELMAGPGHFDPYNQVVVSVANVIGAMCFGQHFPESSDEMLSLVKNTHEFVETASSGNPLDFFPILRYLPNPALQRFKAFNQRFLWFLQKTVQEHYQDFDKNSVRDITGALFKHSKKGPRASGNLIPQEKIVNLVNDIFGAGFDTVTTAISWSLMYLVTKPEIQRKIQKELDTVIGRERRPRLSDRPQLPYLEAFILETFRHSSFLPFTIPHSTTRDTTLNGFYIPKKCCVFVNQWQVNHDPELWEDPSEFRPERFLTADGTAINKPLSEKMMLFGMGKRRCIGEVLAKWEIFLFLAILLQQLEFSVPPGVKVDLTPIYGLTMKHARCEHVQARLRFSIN
Sequence of 2C9 (P11712 whole entry): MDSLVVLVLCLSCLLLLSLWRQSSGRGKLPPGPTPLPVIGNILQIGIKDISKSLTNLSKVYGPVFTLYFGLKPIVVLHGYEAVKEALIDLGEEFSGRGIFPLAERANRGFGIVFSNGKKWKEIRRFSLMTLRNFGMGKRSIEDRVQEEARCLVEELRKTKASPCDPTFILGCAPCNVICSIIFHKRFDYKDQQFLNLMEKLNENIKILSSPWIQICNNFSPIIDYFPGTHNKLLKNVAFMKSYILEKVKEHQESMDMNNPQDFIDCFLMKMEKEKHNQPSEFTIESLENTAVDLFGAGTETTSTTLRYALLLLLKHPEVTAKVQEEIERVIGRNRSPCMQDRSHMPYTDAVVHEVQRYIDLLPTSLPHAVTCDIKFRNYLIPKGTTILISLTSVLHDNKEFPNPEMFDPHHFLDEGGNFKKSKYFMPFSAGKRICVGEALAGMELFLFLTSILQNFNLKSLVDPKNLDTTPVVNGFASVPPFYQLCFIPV
Sequence of CYP3A4 (P08684 whole entry): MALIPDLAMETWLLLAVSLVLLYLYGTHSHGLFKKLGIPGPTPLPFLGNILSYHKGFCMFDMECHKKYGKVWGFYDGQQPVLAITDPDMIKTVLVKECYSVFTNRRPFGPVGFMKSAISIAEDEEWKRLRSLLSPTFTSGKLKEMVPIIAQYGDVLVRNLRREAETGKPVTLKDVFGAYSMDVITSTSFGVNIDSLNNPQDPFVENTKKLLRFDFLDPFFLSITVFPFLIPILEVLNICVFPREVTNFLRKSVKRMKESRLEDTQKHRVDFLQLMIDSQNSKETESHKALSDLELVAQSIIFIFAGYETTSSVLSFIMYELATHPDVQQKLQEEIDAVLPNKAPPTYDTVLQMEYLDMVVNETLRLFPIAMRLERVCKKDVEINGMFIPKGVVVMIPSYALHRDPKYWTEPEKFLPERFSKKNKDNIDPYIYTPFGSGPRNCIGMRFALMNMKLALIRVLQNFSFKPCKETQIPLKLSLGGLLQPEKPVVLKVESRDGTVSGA
Sequence of CYP2D6 (P10635 whole entry): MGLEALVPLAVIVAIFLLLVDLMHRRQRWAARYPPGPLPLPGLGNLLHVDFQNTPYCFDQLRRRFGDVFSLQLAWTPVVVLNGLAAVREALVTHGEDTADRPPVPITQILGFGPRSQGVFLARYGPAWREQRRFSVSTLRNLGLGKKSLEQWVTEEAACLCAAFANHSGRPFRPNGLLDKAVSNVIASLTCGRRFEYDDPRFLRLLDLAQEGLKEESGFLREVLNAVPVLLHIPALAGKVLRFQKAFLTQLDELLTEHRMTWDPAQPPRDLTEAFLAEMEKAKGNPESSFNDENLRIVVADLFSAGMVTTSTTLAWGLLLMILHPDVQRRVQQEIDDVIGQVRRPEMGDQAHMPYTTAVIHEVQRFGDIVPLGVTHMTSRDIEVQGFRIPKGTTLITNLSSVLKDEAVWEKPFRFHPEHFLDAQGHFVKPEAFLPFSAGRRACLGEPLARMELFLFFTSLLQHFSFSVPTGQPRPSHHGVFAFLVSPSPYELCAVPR

With `Cc1ccc(-n2nc(C(=O)N3CCN(C)CC3)nc2-c2ccc3c(c2)N(C2CCCC2)[C@H](C)C(=O)N3C)cc1` [Example 6] the “MLM t1/2” value [1] was 41 min, the “mLM Clint” value [1] was 34 µL/min/mg and the “HLM Clint” value [2] was 61 µL/min/mg. For the same molecule, the “HLM t1/2” value [2] was 23 min, the IC50 [3] was 13.6 ± 5.45 nM and the “inhibitory activity against the MM.1S cell line (in words)” value [3] was “better inhibitory activity against the MM.1S cell line than the positive (+)-JQ1”. For the same molecule, the “RTV (mean SD)” value ([4]; 20 mg/kg qd/14 po) was 584.14, the “T/C (%)” value ([4]; 20 mg/kg qd/14 po) was 48.32% and the “TV (mm^3, mean) d0” value ([4]; 20 mg/kg qd/14 po) was 184.28 mm^3. The “TV (mm^3, mean) d14” value ([4]; 20 mg/kg qd/14 po) was 1024.45 mm^3, the “RTV (mean SD)” value ([4]; 50 mg/kg qd/14 po) was 417.16 and the “T/C (%)” value ([4]; 50 mg/kg qd/14 po) was 34.51%. For the same molecule, the “TV (mm^3, mean) d0” value ([4]; 50 mg/kg qd/14 po) was 185.34 mm^3, the “TV (mm^3, mean) d14” value ([4]; 50 mg/kg qd/14 po) was 660.39 mm^3 and the “inhibitory effect on the growth of MM.1S nude mice xenografts (in words)” value ([4]; oral administration of 50 mg/kg per day) was “significant inhibitory effect”.
For `Cc1ccc(-n2nc(C(=O)N3C[C@@H](C)N[C@@H](C)C3)nc2-c2ccc3c(c2)N(C2CCCC2)[C@H](C)C(=O)N3C)cc1` [Example 12], the inhibition at 20 min [5] was 23%, the half-life at 1 μM ([1]; read-out: half-lives in mouse liver microsomes) was 193 min and the microsomal CLint at 1 μM ([1]; read-out: mLM Clint) was 7 µL/min/mg. For the same molecule, the microsomal CLint at 1 μM ([2]; read-out: HLM Clint) was 52 µL/min/mg, the half-life at 1 μM ([2]; read-out: HLM t1/2) was 27 min and the “Direct inhibition rate (%) 2C9” value [6] was 28%. The “Direct inhibition rate (%) 2C19” value [7] was 12%, the IC50 ([3]; Homo sapiens, MM1.S) was 5.42 ± 1.14 nM and the “inhibitory activity against the MM.1S cell line (in words)” value [3] was “better inhibitory activity against the MM.1S cell line than the positive (+)-JQ1”. The “Direct inhibition rate (%) 1A2” value [8] was “no” and the inhibition at 20 min [9] was 4%.
